“Also recorded” adds a separate entry of the source. Square brackets hold non-standard residues; d marks the D form. Peptide text beside a SMILES is read from it. * marks the point of attachment. Nva = CCC[C@H](N)C(=O)O; Cbz = O=C(OCc1ccccc1)*; CH2F = FC*
Assays:
[1] = RA patients; cited from earlier work
[2] = system: MH7A cells; experiment: Annexin V apoptosis assay (flow cytometry); assay type: cell-based; settings: As2O3 5 μM, representative assay
Experimental: For apoptosis assay, 1×10^6 cells were incubated in 10-cm plates overnight, before treatment with controls or reagents for 24 hours. Cells were then trypsinized, washed twice with ice-cold phosphate buffered saline (PBS), re-suspended in 500 μL of binding buffer, and incubated on ice for 10 minutes with FITC-conjugated annexin-V and propidium iodide (PI) (Immunotech; Fullerton, Calif., USA). Apoptotic cells (annexin-V-positive, PI-negative) were enumerated by flow cytometry in triplicates (Epics, Beckman Coulter, Fullerton, Calif., USA) after appropriate color compensation. Data analysis was performed by the WinMDI 2.8 software (The Scripps Research Institute, La Jolla, Calif., USA).

[3] = system: caspase 3; experiment: Western blot of caspase 3 activation in MH7A cells; assay type: cell-based
Experimental: (§1) Western blot analysis was performed (Pang et al., Gastroenterology, 132:1088-103 (2007)). Cell lysis and protein collection was conducted according to standard protocols. Protein samples (typically 30 μg) were separated by sodium dodecyl sulfate-polyacrylamide gel electrophoresis (SDS-PAGE) in 12% resolving gel and electro-transferred to nitrocellulose membranes (400 mA for 2 hours). After blocking with tris-buffered saline-TWEEN (TBS-T) containing 5% non-fat milk at room temperature for 30 minutes, membranes were incubated with the primary antibody and TBS-T with 5% bovine serum albumin at 4° C. overnight. The membranes were then washed thrice with TBS-T, and incubated for 1 hour at room temperature with 1:2000 horseradish peroxidase-conjugated secondary antibodies (Amersham-Pharmacia Biotechnology, Piscataway, N.J., USA). Immunoreactive bands were detected with chemiluminescence using the SuperSignal West Pico Chemiluminescent Substrate (Pierce Chemical Co., Rockford, Ill., USA), and visualized on X-ray films. Densitometric quantification of band signals was performed using ImageJ 1.36b software (National Institutes of Health, USA). All experiments were performed in triplicates.

[4] = system: gp130; experiment: Western blot of gp130 expression in MH7A cells; assay type: cell-based; settings: for effect of pre-incubation with inhibitor on As2O3-induced decrease in gp130: NH4Cl 2.5 mM, MG115 10 μM, Z-VAD-FMK 25 μM, As2O3 5 μM
Experimental: as §1

[5] = system: IL-6 receptor α; experiment: Western blot of IL-6 receptor α expression in MH7A cells; assay type: cell-based
Experimental: as §1

[6] = system: IL-6 gene; experiment: RT-PCR of IL-6 gene transcription in MH7A cells; assay type: cell-based
Experimental: (§2) Total RNA was prepared using TRIzol (Invitrogen). Reverse transcription PCR (RT-PCR) was performed (Cheung, et al., Cancer Lett., 246:122-8 (2007)). RNA was reverse transcribed with the Superscript™ III First-Strand Synthesis System (Invitrogen) according to the manufacturer's instructions. Reaction mixes contained 1.2 μL of cDNA, 18 μL of Platinum® PCR Supermix (Invitrogen) and 200 nM of each pair of primers.

[7] = system: GP130 gene; experiment: RT-PCR and Q-PCR of gp130 gene transcription in MH7A cells; assay type: cell-based
Experimental: as §2
Quantitative-RT-PCR (Q-PCR) for GP130 was performed with the Assays-on-Demand™ Gene Expression System (AssayID: Hs00174360_m1, PE Biosystems, Foster City, Calif., USA) according to the manufacturer's instructions. The reaction mix contained 2 μL of cDNA, 10 μL of TaqMan® Universal PCR Master Mix, 1 μL of Assay-on-Demand™ Gene Expression Assay Mix, and RNase-free water to a volume of 20 μL. Q-PCR was performed with the ABI Prism 7700 Sequence Detector (PE Biosystems). […] Real-time PCR amplification data were collected continuously and analyzed with the ABI Prism 7700 Sequence Detector. Relative gene expression to the control calibrator, and normalized to the internal control, was calculated by the ΔΔCT method (ABI user bulletin number 2, PE Biosystem) (Cheung, et al., Cancer Lett., 246:122-8 (2007)). […]

[8] = system: IL-6 receptor α gene; experiment: RT-PCR of IL-6 receptor α gene transcription in MH7A cells; assay type: cell-based; settings: semi-quantitative RT-PCR
Experimental: as §2

[9] = system: gp130; experiment: Immunoprecipitation of gp130 and Western blot with anti-ubiquitin antibodies FK1 and FK2; assay type: cell-based; settings: 100 μM As2O3, 0, 4 or 6 hours; FK2 positive, FK1 negative
Experimental: Immunoblot analysis was performed with gp130 ubiquitinylation. MH7A cells are incubated with 100 μM As2O3 for 0, 4 or 6 hours. Antibody to gp130 is used for immunoprecipitation (IP) of total cell lysates, followed by Western blot analysis with anti-ubiquitin antibodies FK1 and FK2. IP with non-immune rabbit serum (NIS) serves as control.
Immunoprecipitation was performed by standard procedures (Pang et al., Gastroenterology, 132:1088-103 (2007)). Cells were washed with ice-cold PBS supplemented with 1 mM sodium orthovanadate and Complete protease inhibitor cocktail (Complete; Roche Molecular Biochemicals), and lysed with buffer (50 mM Tris-HCl, pH: 7.5, 100 mM NaCl, 1% Triton X-100, 4 μg/mL aprotinin, 100 μM phenylmethylsulfonyl fluoride, 200 μM sodium orthovanadate, 2 μg/mL leupeptin, 1 mM ditheiothreitol, and 1× Complete) at 4° C. for 15 minutes. Lysates were collected and centrifuged. Proteins were assayed (Bio-Rad Protein Assay Kit, Philadelphia, Pa., USA), and adjusted to 1 μg/μL (typically 800 to 1000 μg). Immunoprecipitation was preformed by incubating protein samples with the appropriate antibodies (typically 4 μg) or control non-immune sera at 4° C. overnight with gentle shaking. […] The immunoprecipitates were then analyzed by Western blotting in triplicates

[10] = system: JNK; experiment: Western blot of JNK phosphorylation in MH7A cells; assay type: cell-based
Experimental: as §1

[11] = system: p53; experiment: Western blot of p53 phosphorylation at serine 46 in MH7A cells; assay type: cell-based; settings: 5 μM As2O3
[12] = system: MH7A cells; experiment: Cell cycle analysis by PI staining and flow cytometry; assay type: cell-based; settings: 5 μM As2O3, 24 hours
Experimental: Cell cycle analysis was performed as described (Pang et al., J. Pathol. 210:19-25, (2006)), Cells were trypsinized, washed twice with ice-cold PBS, re-suspended in 500 μL PBS, and stained with PI for 10 minutes on ice (DNA Prep™, Beckman Coulter). Cell cycle was determined by flow cytometry, and data analyzed by the WinMDI 2.8 software.

[13] = system: NFκB; experiment: Western blot of NFκB expression in MH7A cells; assay type: cell-based; settings: dose (24 hours) and time (5 μM) dependence
Experimental: as §1

[14] = system: MH7A cells
Experimental: Cells were maintained in RPMI1640 (Invitrogen, Carlsbad, Calif., USA) supplemented with 10% heat inactivated fetal bovine serum (FBS; Invitrogen) in 5% CO2 at 37° C.
Cellular proliferation was assessed by an MTT assay (GE Healthcare, Piscataway, N.J., USA) (Cheung et al., Cancer Lett., 246:122-8 (2007)). Cells (2×10^4 cells/well in 96-well plates) were incubated overnight before treatment with controls or reagents for 2-6 days. The treated cells were then incubated with the MTT labeling solution (10 μL/well). After 4 hours of incubation, cells were lyzed, and formazan crystals solubilized overnight at 37° C. Formazean signal was detected at 570 nm (μ-Quant™ microplate spectrometer, Bio-Tek Instruments Inc., VT, USA). Data obtained were analyzed by the KC junior software (BLD Science, Garner, N.C., USA).

[15] = oral As2O3; cited from earlier work
[16] = oral As2O3; cited from earlier work; remark: listed apart in the source

infliximab
clinical effect in RA [1]: significant improvement in joint inflammation and halts the progression of joint damage

Arsenic trioxide [As2O3]
annexin-V positive, propidium iodide negative (apoptotic) cells [2]: 38.2% | annexin-V positive, propidium iodide positive (dead) cells [2]: 5.76% | activation of caspase 3 [3]: dose and time dependent activation of caspase 3 | gp130 protein level ([4]; Western blot): dose and time dependent decrease of gp130 | IL-6 receptor α protein level [5]: remaining unchanged | IL-6 gene transcription [6]: did not affect IL-6 gene transcription | GP130 gene transcription ([7]; real-time quantitative PCR, 5 μM As2O3, 0-24 hours): no effect on GP130 gene transcription | gp130 gene transcription ([7]; semi-quantitative RT-PCR): no effect on the transcription of both genes | IL-6 receptor α gene transcription [8]: no effect on the transcription of both genes | gp130 ubiquitination [9]: induced mono-ubiquitination of gp130; also recorded: gp130 is mono-ubiquitinated | JNK phosphorylation ([10]; 5 μM As2O3, 0-24 hours): significant increases in JNK phosphorylation | p53 phosphorylation at serine 46 [11]: significantly increased p53 phosphorylation at serine 46 | cell cycle arrest [12]: significant G2M arrest | level of NFκB [13]: significantly decreased the level of NFκB | inhibition of growth of MH7A cells ([14]; increasing concentrations, 24, 48 or 72 hours): dose and time dependent inhibition of growth | IC50 ([14]; read-out: 50% inhibitory concentration, growth of MH7A cells, MTT assay, 24, 48 or 72 hours): ~5 µM | QT prolongation [15]: minimal QT prolongation | efficacy in relapsed acute promyelocytic leukemia [16]: highly efficacious

COC(=O)C[C@H](NC(=O)[C@H](C)NC(=O)[C@@H](NC(=O)OCc1ccccc1)C(C)C)C(=O)CF [Z-VAD-FMK] (Cbz-Val-Ala-Asp(OMe)-CH2F)
effect of pre-incubation with inhibitor on As2O3-induced decrease in gp130 [4]: had no effect

IL-6: recombinant human IL-6 (Peprotech)
effect of exogenous IL-6 on proliferation of MH7A cells ([14]; 72 hours): did not increase the proliferation

tocilizumab
clinical effect in RA [1]: significant control of symptoms

CCC[C@@H](C=O)NC(=O)[C@H](CC(C)C)NC(=O)[C@H](CC(C)C)NC(=O)OCc1ccccc1 [MG115] (Cbz-Leu-Leu-[Nva]-aldehyde)
effect of pre-incubation with inhibitor on As2O3-induced decrease in gp130 [4]: had no effect

Cl.N [NH4Cl, ammonium chloride]
effect of pre-incubation with inhibitor on As2O3-induced decrease in gp130 [4]: significantly prevented | effect of inhibitor on As2O3-induced JNK phosphorylation/activation ([10]; SP600125 30 μM, NH4Cl 2.5 mM): almost totally abrogated
